Source: patent publication US4608365A, “Treatment of neurologic functions” (priority 1984, dated 1986)

What was measured:
patients given TRH = assay: Amelioration of TRH side-effects by co-medication; set-up: species or system human; details: in vivo
Description: In addition, all patients experiencing the various described side-effects considered those side-effects to be minor and desired further TRH treatments.

[1] = tested on: tissue-cultured fetal rat lower motor neurons; assay: Trophic-like effect on tissue-cultured fetal rat lower motor neurons (cholineactyltransferase); assay type: cell-based; details: chronic
Description: "Transmitter-like," as used herein, includes not only direct excitatory (or facilitatory) and inhibitory actions on the lower motor neurons, but also any action on lower motor neurons or afferents thereto that results indirectly in such an effect. That excitatory TRH action, increasing patients' strength, is either directly excitatory or facilitatory and perhaps analogous to the lower motor neuron facilitation of glutamate excitation noted with TRH micropipetted into spinal cords of normal amphibia (Nicoll, J. Pharmac. Exp. Therap. 1978; 207: 817-24; Phillis et al., Can. J. Physiol. Pharmacol. 1979; 57: 887-99 and rodents, White Abstr. Soc. Neurosci 1983, 9: 714, and in other animal studies. An inhibitory transmitter-like action seems likely to underlie both the rapid-onset autorefractory phenomenon and the possibly related clinical reduction of spasticity, spasms and cramps. A tachyphalaxis or desensitization phenomenon, perhaps similar to the clinical autorefractory state, has been noted in animal lower motor neurons with larger amounts of TRH micropipetted into the spinal cord (Nicoll and Phillis, et al., supra).

CN(C)CCOC(c1ccccc1)c1ccccc1.Cn1c(=O)c2[nH]c(Cl)nc2n(C)c1=O [dimenhydrate]
effect on nausea side-effect of TRH (patients given TRH): diminishes the rare, occurring nausea side-effect

insulin
enhancement of cholineactyltransferase [1]: 10 fold

CC(N)C(O)c1ccccc1 (stereo not drawn) [phenylpropanolamine]
effect on shivering side-effect of TRH (patients given TRH): diminish the shivering side-effect
